Patent US20110065087A1, “NOVEL HIV TARGETS” (priority 2007, published 2011)
d = 2'-deoxy (DNA); r = 2'-OH (RNA)

Tested on: HXB2 HIV
Assay: Rescue of 3′UTR siRNA-mediated inhibition of HIV replication by non-targeted cDNA, β-galactosidase readout
Assay type: cell-based
Conditions: LIG3 cDNA lacking the 3′UTR; FIG. 7

Substance: CAUACUCUCCUUUACCAUAdTdT (CAUACUCUCCUUUACCAUATT; siRNA; sugars from the 5' end r19 d2, backbone not given here) [LIG3 siRNA #8, siRNA targeting the 3′UTR of LIG3]
- p, difference between siRNA+vector-transfected and siRNA+cDNA transfected: < 0.05
